The logP is the decadic logarithm of the partition coefficient of the neutral form, usually between octanol and water. What is called logD is lipophilicity at a set pH, counting ionised and neutral species.

Molecules are shown by their SMILES.

Experiment in one data set: not given
Settings: not given
`CNC(=O)N(C)S(=O)(=O)c1cccnc1` yielded a log partition coefficient (logP) of 0.42. Same read-out and setting: the figure for `CNC(=O)NS(=O)(=O)Cc1ccccc1` is 0.54; for `CNC(=O)N(C)S(=O)(=O)Cc1ccccc1` it is 1.18; for `NC(=O)NS(=O)(=O)Cc1ccccc1` it is 0.28.

`CN(C)C(=O)NS(=O)(=O)Cc1ccccc1` had a logP of 0.54.

Another data set is described as follows: method code SF-AS, from Cloux, J.; Crommen, J.; Delarge, J.; Pirard, M.; Thunus, L. (1988). Attempts at calculating hydrophobic constant of the sulfonylurea group. J Pharm Belg, 43(3)141-151.
Settings: not given
As to `CC(C)(C)NC(=O)NS(=O)(=O)c1ccccc1`, the logP is 1.95. Regarding `CCNC(=O)NS(=O)(=O)c1ccccc1`, the logP is 0.9. Still for that read-out and setting: to `NC(=O)NS(=O)(=O)c1ccccc1` belongs 0.28. As for `CC(C)NC(=O)NS(=O)(=O)c1ccccc1`, the lipophilicity (logP) is 1.34. Same read-out and setting: to `CCN(CC)C(=O)NS(=O)(=O)c1ccccc1` belongs 0.99.

As for `CCCNC(=O)NS(=O)(=O)c1ccccc1`, the logP was 1.44.

`CN(C)C(=O)NS(=O)(=O)c1ccccc1`: the lipophilicity (logP) was 0.28.

The same data set, now with this note: pH 3.5.
Consider `CNC(=O)NS(=O)(=O)c1cccnc1`, for which the logD is -0.45. On the same count and under the same terms, to `NC(=O)NS(=O)(=O)c1cccnc1` belongs -0.65.

The values above are taken from the SangsterLogP compilation.
